This is an account of results in paper PMC7249060, “The Antiproliferative Effects of Flavonoid MAO Inhibitors on Prostate Cancer Cells” (Molecules, 2020).

One experiment has as its target T1, hMAO-A (Homo sapiens, UniProt P21397).
T1 construct: purchased Sigma-Aldrich Co. (St. Louis, MO, USA)
T1 sequence (P21397 1-527): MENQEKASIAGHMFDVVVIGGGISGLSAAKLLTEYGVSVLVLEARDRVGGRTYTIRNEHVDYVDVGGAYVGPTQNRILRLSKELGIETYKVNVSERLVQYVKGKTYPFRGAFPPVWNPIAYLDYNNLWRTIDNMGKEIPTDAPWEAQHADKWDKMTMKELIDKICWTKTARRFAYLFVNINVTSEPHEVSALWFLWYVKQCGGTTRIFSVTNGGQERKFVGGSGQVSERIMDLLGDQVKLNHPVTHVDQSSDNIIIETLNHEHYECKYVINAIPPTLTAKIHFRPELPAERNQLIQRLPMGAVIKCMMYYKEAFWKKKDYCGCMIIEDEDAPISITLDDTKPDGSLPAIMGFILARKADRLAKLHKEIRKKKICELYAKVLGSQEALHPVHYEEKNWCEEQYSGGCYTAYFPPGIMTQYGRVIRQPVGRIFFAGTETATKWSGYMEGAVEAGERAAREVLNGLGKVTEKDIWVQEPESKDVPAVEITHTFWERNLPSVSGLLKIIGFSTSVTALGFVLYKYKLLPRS
Description: MAO-Glow inhibitory potency (IC50) and relative selectivity. Format: biochemical. The conditions noted are these: for MAO isozyme selectivity: comparison of hMAO-A and hMAO-B IC50s; for IC50: mean ± SEM, at least two experiments, LDS 40 μM; for hMAO-A relative selectivity (RSA): RSA = hMAO-B IC50/hMAO-A IC50. As to the method: (§1) The inhibitory effects of the synthesized KKRs of hMAO-A and B were tested by measuring the decrease in arbitrary light units (ALU) signal produced by the optimized isozymes using the MAO-Glow™ Assay at 37 °C. In this assay, DMSO stock for each KKR compound was diluted with a reaction buffer of pH 7.4 to make a 4X working solution for a maximum final concentration of 100 μM and ≤1% DMSO. The experiments were run in the absence and presence of 4X the miscellaneous standards of MAO-BIs (DEP, PARG, and SAF) and MAO-AIs (PIRL and CLORG), with similar concentrations. In white opaque 96-well microplates, 12.5 μL of each compound was plated at RT and was followed by 25 μL of 2X cold hMAO-A or hMAO-B, for a final concentration of 0.44 U/mL. A related buffer substituted each isozyme to make the blank wells and substituted each compound to make the negative control wells. Following this, we added 12.5 μL of 4X LDS to make a final substrate concentration of 40- and 4-μM for hMAO-A and hMAO-B, respectively. All screen plates were incubated at 37 °C for 60 min. The plates of 50 μL/well were then taken out from the incubator, and their reactions were stopped by an equal volume of 50 μL of reporter luciferin detection reagent (RLDR). After 30 min, the luminescence signals for all plates were read on a Synergy HTX Multi-reader from Bio-Tek (Winooski, VT, USA).
(§2) The experiments were performed in the presence and absence of the standard PILR. In white opaque 96-well plates, each KKR compound was serially diluted with a reaction buffer of pH 7.4 at the highest possible maximum final concentration, and the least used DMSO (<2%). In blank wells, the related reaction buffer substituted the isozyme. In negative control wells, the reaction buffer substituted each compound concentration. Then, the procedure was carried out as mentioned above (Section 4.2.2), and the reaction was detected on the Bio-Tek Synergy HTX Multi-Reader. The IC50 of each KKR on both isozymes was determined and subsequently the RSA and RSB was calculated.
(§3) Statistical analyses were performed using the GraphPad Prism program (version 6.07 for Windows) from the GraphPad Prism Software Incorporated (San Diego, CA, USA). All data points and parameters were expressed as the mean ± SEM. All parameters were calculated from non-linear and linear regressions with the best R^2 values, no less than 93%. The inhibitory concentration of 50% of isozyme (IC50) of each compound was obtained by the interpolation of a normalized variable slope logarithmic curve. The RSA values of the selected compounds were calculated from their IC50 average means following the equation RSA = hMAO − B IC50/Hmao − A IC50(1)

The target in another experiment is T2, hMAO-B (Homo sapiens, UniProt P27338).
T2 construct: purchased Sigma-Aldrich Co. (St. Louis, MO, USA)
T2 sequence (P27338 1-520): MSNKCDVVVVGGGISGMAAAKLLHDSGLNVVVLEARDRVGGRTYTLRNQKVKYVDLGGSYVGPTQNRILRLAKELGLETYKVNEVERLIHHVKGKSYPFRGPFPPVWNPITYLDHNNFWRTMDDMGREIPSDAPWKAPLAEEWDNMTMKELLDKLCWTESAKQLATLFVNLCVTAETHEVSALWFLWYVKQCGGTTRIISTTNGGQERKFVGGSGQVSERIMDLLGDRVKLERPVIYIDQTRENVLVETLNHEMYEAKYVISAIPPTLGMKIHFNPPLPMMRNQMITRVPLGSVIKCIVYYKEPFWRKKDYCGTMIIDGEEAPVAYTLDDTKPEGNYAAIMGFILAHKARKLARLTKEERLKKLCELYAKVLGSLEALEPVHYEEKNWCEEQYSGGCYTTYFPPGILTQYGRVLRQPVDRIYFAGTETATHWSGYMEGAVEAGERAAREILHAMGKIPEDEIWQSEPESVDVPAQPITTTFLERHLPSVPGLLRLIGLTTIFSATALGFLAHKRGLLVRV
The experiment can be described thus: MAO-Glow inhibitory potency (IC50). It counts as biochemical. The conditions noted are these: mean ± SEM, at least two experiments; LDS 4 μM. As to the method:
as §1, §2, §3

For experiment [1], the system named is LNCaP cells. Description: Antiproliferation dose-response assay for 72 h. Format: cell-based. The conditions noted are these: Homo sapiens, mean ± SEM of two experiments, read-out: antiproliferative IC50. As to the method: For the top effective KKRs, along with TAX, their potency to reduce the affected PCa cell line growth in a dose-dependent manner was determined using the resazurin fluorescence assay. We followed the same protocols and materials used for the antiproliferation screen assays (Section 4.3.2), with the following modifications. The maximum final KKR concentration used was 40 μM. The concentration of 8X of each KKR working solution in 1% HEPES 7.4 was serially diluted in a 3:1 ratio, compound to buffer, respectively. Each data set was collected from ten data points of 3.7–40 μM range. The control had the KKR substituted with buffer. The related IC50 averages were analyzed for the compounds that affected the cell lines the most.

The test system of experiment [2] is LNCaP cells. Description: cells. As to conditions: for effect on LNCaP proliferation and cell morphology: 20 μM, five days, phase contrast; for viability at 20 µM: Homo sapiens, LNCaP, 120 h, read-out: percentage of treated group compared to the viable control. It counts as cell-based, human. As to the method: The morphological alterations of the LNCaP cells were imaged, and their percentage proliferation rate was measured after five-days of incubation. The method of subculture and treatment were similar to our antiproliferation assay, with slight modifications. Briefly, the cells were seeded in transparent flat-bottom 96-well microplates with 10,000 cells/175 μL/well of […] experimental media. Following overnight incubation, 20 μM concentration level (~2 × IC50) for each of KKR11, 20, 7, 2A, 21, and the standard PIRL were added to the cells for a total volume of 200 μL/well and re-incubated for five-days. On the day of imaging, 20X phase-contrast images of lid-covered treated and control cells were captured using an inverted microscope. Resazurin was then added for viability detection, and the imaged cells in the wells were read after 4.5 h on the Bio-Tek Synergy HTX Multi-reader.

A value given as a limit tells only on which side of the number the result lay.

On to `O=C(/C=C/c1ccccc1)c1cc(Cl)cc(Cl)c1O` [KKR20, (E)-1-(3,5-dichloro-2-hydroxyphenyl)-3-phenylprop-2-en-1-one], for which, on hMAO-A, the “MAO isozyme selectivity” value is listed as “in favor to inhibit MAO-B” and the IC50 – broadly, the concentration needed to halve the response being measured – was 2.94 ± 0.39 µM. Besides, the IC50 at hMAO-B came out at 0.79 ± 0.06 µM. Besides, the IC50 in the experiment on LNCaP cells [1] amounted to 9.2 µM. In addition, in the experiment on LNCaP cells [2], the “effect on LNCaP proliferation and cell morphology” value was “dramatically and differently altered cell morphology with a highly significant loss of proliferation”; the viability at 20 µM was 26%.

As for `O=c1cc(-c2ccccc2)oc2cc(Cl)c(Cl)cc12` [KKR21, 6,7-dichloro-2-phenyl-4H-chromen-4-one], on hMAO-A, the “hMAO-A relative selectivity (RSA)” value is above 42105 folds, the “MAO isozyme selectivity” value is “highly selective MAO-AIs” and the IC50 was found to be 0.019 µM. In addition, the IC50 on hMAO-B is above 800 µM. Besides, the half-maximal inhibitory concentration (IC50) with LNCaP cells [1] was above 40 µM. In the experiment with LNCaP cells [2], the “effect on LNCaP proliferation and cell morphology” value is “neither significant effects on LNCaP proliferation nor apparent changes in cell morphology”; the viability at 20 µM worked out at 94%.

For `O=c1c(O)c(-c2ccccc2)oc2c(Cl)cc(Cl)cc12` [KKR7, 6,8-dichloro-3-hydroxy-2-phenyl-4H-chromen-4-one], at hMAO-A, the “hMAO-A relative selectivity (RSA)” value is above 42105 folds, the “MAO isozyme selectivity” value is on record as “highly selective MAO-AIs” and the IC50 turned out to be 16 ± 0.53 µM. For the same compound, the IC50 at hMAO-B was above 800 µM. Also, the IC50 in the experiment with LNCaP cells [1] was found to be 9.1 µM. Also, in the experiment on LNCaP cells [2], the “effect on LNCaP proliferation and cell morphology” value is “dramatically and differently altered cell morphology with a highly significant loss of proliferation”; the viability at 20 µM is 25%.

Turning to `COc1cc(OC)c2c(=O)c(O)c(/C=C/c3cc(OC)c(OC)c(OC)c3)oc2c1` [KKR2A, (E)-3-hydroxy-5,7-dimethoxy-2-(3,4,5-trimethoxystyryl)-4H-chromen-4-one], at hMAO-A, the “MAO isozyme selectivity” value is listed as “non-selective MAO inhibitory activity” and the half-maximal inhibitory concentration (IC50) amounted to 1.03 ± 0.04 µM. Moreover, the concentration for half-maximal inhibition (IC50) on hMAO-B turned out to be 0.2 ± 0.02 µM. Moreover, the 50% inhibitory concentration (IC50) in the experiment on LNCaP cells [1] is above 40 µM. Also, in the experiment on LNCaP cells [2], the “effect on LNCaP proliferation and cell morphology” value was “neither significant effects on LNCaP proliferation nor apparent changes in cell morphology”; the viability at 20 µM was 96%.

For `COc1cc(O)c(C(=O)/C=C/c2ccc(Cl)c(Cl)c2)c(OC)c1` [KKR11, (E)-3-(3,4-dichlorophenyl)-1-(2-hydroxy-4,6-dimethoxyphenyl)prop-2-en-1-one], on hMAO-A, the “MAO isozyme selectivity” value was “non-selective MAO-I” and the concentration for half-maximal inhibition (IC50) came to 0.31 ± 0.03 µM. Also, the IC50 on hMAO-B came to 1.12 ± 0.09 µM. Also, in the experiment with LNCaP cells [1], the half-maximal inhibitory concentration (IC50) was 9.5 µM. In the experiment on LNCaP cells [2], the “effect on LNCaP proliferation and cell morphology” value was “dramatically and differently altered cell morphology with a highly significant loss of proliferation”; the viability at 20 µM was 11%.
